This note sets out measurements from patent publication US6613766B1, “Pentaaza-cyclopental[a]naphthalene derivatives as ligands for GABAa α5 receptors” (Merck Sharp & Dohme Ltd., priority 1998, dated 2003).

Each structure is given as a SMILES string.

As usually defined, the melting point is the temperature of the solid-liquid transition. `Cc1cc(-c2nnc3c4cccnc4c(OCc4ncnn4C)nn23)no1` [Example 4, 3-(5-Methylisoxazol-3-yl)-5-(2-methyl-1,2,4-triazol-3-ylmethyloxy)-1,2,3a,4,6-pentaaza-cyclopenta[a]naphthalene]: the melting point lay within 255 to 257 °C.
